{
  "source": "patent US11834424B2",
  "about": "“Compounds useful as chaperone-mediated autophagy modulators” (ALBERT EINSTEIN COLLEGE OF MEDICINE, priority 2018, dated 2023)",
  "key": {"in vitro": {"test": "in vitro", "conditions": "human, microsomes", "method": "Microsome stability was determined in human, rat, and mouse, liver microsomes. Compound at 3 μM final concentration along with 0.5 mg/mL microsome protein and 1 mM NADPH was incubated for 0, 5, 15, 30 and 60 min. As a negative control, test compound was incubated with microsomes in the absence of NADPH. Samples were quenched with methanol and centrifuged for 25 min at 2500 rpm to precipitate proteins. Supernatants were analyzed (N=3) by LC-MS/MS. The In peak area ratio (compound peak area/internal standard peak area) was plotted against time and the gradient of the line determined the elimination rate constant [k=(−1)(slope)].\nR^2 is the correlation coefficient of the linear regression for the determination of kinetic constant. T1/2 is the half life and CLint (mic) is the intrinsic clearance. CLint(liver)=CLint (mic)*mg microsomal protein/g liver weight*g liver weight/kg body weight. Liver weight/kg body weight is 20 g/kg for human."}, "[1]": {"test": "Pharmacokinetics (plasma and brain levels) in ICR (CD-1) mice", "type": "in vivo", "conditions": "i.v. 1 mg/kg; for Conc. in brain, individual animal / concentration at 0.083 h / concentration at 0.25 h / concentration at 0.5 h / concentration at 1 h / concentration at 2 h / concentration at 4 h: mouse brain; for Conc. in plasma, individual animal: mouse plasma; for Brain/Plasma ratio, individual animal / concentration at 0.083 h / concentration at 0.25 h / concentration at 0.5 h / concentration at 1 h / concentration at 2 h / concentration at 4 h: mouse; for concentration at 0.083 h / concentration at 0.25 h / concentration at 0.5 h / concentration at 1 h / concentration at 2 h / concentration at 4 h: male, ICR (CD-1), brain, iv", "method": "ICR (CD-1) male mice were fasted at least three horns and water was available ad libitum before the study. Animals were housed in a controlled environment, target conditions: temperature 18 to 29° C., relative humidity 30 to 70%. Temperature and relative humidity was monitored daily. An electronic time controlled lighting system was used to provide a 12 h light/12 h dark cycle. 3 mice for each indicated time point. ICR (CD-1) mice were administered CA77 at 1 mg/kg i.v. and 30 mg/kg p.o. or CA77.1 at 1 mg/kg i.v. (FIG. 2A) and 10 mg/kg p.o. (FIG. 2B). Three (3) mice were included in each dosage and time group. Mice were sacrificed and plasma and brains were obtained at 0.083, 0.25, 0.50, 1.0, 2.0, 4.0, 8.0, and 24.0 hours after administration and drug concentration determined using LC-MS/MS. Brains were removed, homogenized with a tissue homogenizer in cold 5% w/v BSA in phosphate buffer saline (PBS). A 100 microliter aliquots of brain samples were dispensed in to glass culture tubes and mixed with ethyl acetate (800 μl), vortexed, and centrifuged. The organic layer was transferred to a fresh culture tube, dried under nitrogen, and reconstituted in mobile phase for quantitation. Pharmacokinetic parameters were determined by standard methods using Phoenix WinNonlin 6.3 software.\nTables 3A and 3B provide the concentrations of CA77 in ICR (CD-1) mouse plasma (3A) and mouse brain (3B) following i.v. administration of 1 mg/kg CA77. Table 3C provides the brain/plasma ratio of CA77 following i.v. administration of 1 mg/kg CA77. Shaded cells indicate data not included in statistics due to aberrant value. BLQ=Below Limit of Quantitation.\nTables 5A and 5B provide the concentrations of CA77.1 in ICR (CD-1) mouse plasma (5A) and mouse brain (5B) following i.v. administration of 1 mg/kg CA77.1. Table 5C provides the brain/plasma ratio of CA77.1 following i.v. administration of 1 mg/kg CA77.1. The plasma and brain pharmacokinetic parameters for CA77.1 are provided in Table 6. *—cells contain data not present in the statistics."}},
  "note": "Several values for one entry are separate records, joined by “and”; a condition that tells them apart may be missing. Equal values may be shown once. Entries after “also recorded” stand apart in the source; their conditions may differ. Read-outs that look alike come from different tables or passages of the source.",
  "data": [
    {"smiles": "CC(=O)Nc1ccc(-c2cnc3cc(Cl)ccc3n2)cc1", "note": "[CA77.1, N-(4-(6-chloroquinoxalin-2-yl)phenyl)acetamide]", "values": [
      {"measurement": "half-life at 3 μM", "setting": "in vitro", "result": 20.6, "unit": "min"},
      {"measurement": "CLint(mic)", "setting": "in vitro; 3 μM", "result": 67.2, "unit": "µL/min/mg"},
      {"measurement": "Remaining (T = 60 min)", "setting": "in vitro; 1 h, 3 μM", "result": 10.8, "unit": "%"},
      {"measurement": "CLint scaled at 3 μM", "setting": "in vitro; CLint(liver)", "result": 60.5, "unit": "mL/min/kg"},
      {"measurement": "CL obs", "setting": "[1]; ICR (CD-1) mice", "result": 53, "unit": "mL/min/kg"},
      {"measurement": "VSS_obs", "setting": "[1]; ICR (CD-1) mice", "result": 6.463, "unit": "L/kg"},
      {"measurement": "Conc. in brain, individual animal", "setting": "[1]; 0.083 h, 1 mg/kg", "result": "1171 ng/g and 970 ng/g"},
      {"measurement": "Conc. in brain, individual animal", "setting": "[1]; 0.25 h, 1 mg/kg", "result": "813 ng/g and 691 ng/g"},
      {"measurement": "Conc. in brain, individual animal", "setting": "[1]; 0.50 h, 1 mg/kg", "result": "677 ng/g and 1083 ng/g"},
      {"measurement": "Conc. in brain, individual animal", "setting": "[1]; 1.00 h, 1 mg/kg", "result": "628 ng/g and 781 ng/g"},
      {"measurement": "Conc. in brain, individual animal", "setting": "[1]; 2.00 h, 1 mg/kg", "result": "269 ng/g and 186 ng/g"},
      {"measurement": "Conc. in brain, individual animal", "setting": "[1]; 4.00 h, 1 mg/kg", "result": "13.6 ng/g and 24.9 ng/g"},
      {"measurement": "Conc. in brain, individual animal", "setting": "[1]; 8.00 h, 1 mg/kg", "result": "3.31 ng/g and 3.66 ng/g"},
      {"measurement": "Conc. in brain, individual animal", "setting": "[1]; 24.0 h", "result": 0, "unit": "ng/g"},
      {"measurement": "Conc. in plasma, individual animal", "setting": "[1]; 0.083 h, 1 mg/kg", "result": "178 ng/mL and 214 ng/mL"},
      {"measurement": "Conc. in plasma, individual animal", "setting": "[1]; 0.25 h, 1 mg/kg", "result": "152 ng/mL and 104 ng/mL"},
      {"measurement": "Conc. in plasma, individual animal", "setting": "[1]; 0.50 h, 1 mg/kg", "result": "247 ng/mL and 100 ng/mL and 481 ng/mL"},
      {"measurement": "Conc. in plasma, individual animal", "setting": "[1]; 1.00 h, 1 mg/kg", "result": "79.3 ng/mL and 85.0 ng/mL"},
      {"measurement": "Conc. in plasma, individual animal", "setting": "[1]; 2.00 h, 1 mg/kg", "result": "30.8 ng/mL and 38.5 ng/mL and 69.4 ng/mL"},
      {"measurement": "Conc. in plasma, individual animal", "setting": "[1]; 4.00 h, 1 mg/kg", "result": "3.31 ng/mL and 3.33 ng/mL and 10.2 ng/mL"},
      {"measurement": "Conc. in plasma, individual animal", "setting": "[1]; 8.00 h, 1 mg/kg", "result": "1.43 ng/mL and 1.42 ng/mL"},
      {"measurement": "Conc. in plasma, individual animal", "setting": "[1]; 24.0 h, 1 mg/kg", "result": "*7.61 ng/mL; also recorded: *16.6 ng/mL"},
      {"measurement": "Brain/Plasma ratio, individual animal", "setting": "[1]; 0.083 h, 1 mg/kg", "result": "6.57 and 4.53"},
      {"measurement": "Brain/Plasma ratio, individual animal", "setting": "[1]; 0.25 h, 1 mg/kg", "result": "5.35 and 6.67"},
      {"measurement": "Brain/Plasma ratio, individual animal", "setting": "[1]; 0.50 h, 1 mg/kg", "result": "2.74 and 6.77 and 2.25"},
      {"measurement": "Brain/Plasma ratio, individual animal", "setting": "[1]; 1.00 h, 1 mg/kg", "result": "7.92 and 9.19"},
      {"measurement": "Brain/Plasma ratio, individual animal", "setting": "[1]; 2.00 h, 1 mg/kg", "result": "8.97 and 7.00 and 2.68"},
      {"measurement": "Brain/Plasma ratio, individual animal", "setting": "[1]; 4.00 h, 1 mg/kg", "result": "5.48 and 4.09 and 2.44"},
      {"measurement": "Brain/Plasma ratio, individual animal", "setting": "[1]; 8.00 h, 1 mg/kg", "result": "2.31 and 2.59"},
      {"measurement": "concentration at 0.083 h", "setting": "[1]; 1 mg/kg, 0.083 h, read-out: Conc. in brain, Mean", "result": 1060, "unit": "ng/g"},
      {"measurement": "concentration at 0.083 h", "setting": "[1]; 1 mg/kg, 0.083 h, read-out: Conc. in brain, individual animal", "result": 1030, "unit": "ng/g"},
      {"measurement": "concentration at 0.25 h", "setting": "[1]; 1 mg/kg, 0.25 h, read-out: Conc. in brain, Mean", "result": 789, "unit": "ng/g"},
      {"measurement": "concentration at 0.25 h", "setting": "[1]; 1 mg/kg, 0.25 h, read-out: Conc. in brain, individual animal", "result": 864, "unit": "ng/g"},
      {"measurement": "concentration at 0.5 h", "setting": "[1]; 1 mg/kg, 0.50 h, read-out: Conc. in brain, Mean", "result": 812, "unit": "ng/g"},
      {"measurement": "concentration at 0.5 h", "setting": "[1]; 1 mg/kg, 0.50 h, read-out: Conc. in brain, individual animal", "result": 677, "unit": "ng/g"},
      {"measurement": "concentration at 1 h", "setting": "[1]; 1 mg/kg, 1.00 h, read-out: Conc. in brain, Mean", "result": 669, "unit": "ng/g"},
      {"measurement": "concentration at 1 h", "setting": "[1]; 1 mg/kg, 1.00 h, read-out: Conc. in brain, individual animal", "result": 597, "unit": "ng/g"},
      {"measurement": "concentration at 2 h", "setting": "[1]; 1 mg/kg, 2.00 h, read-out: Conc. in brain, Mean", "result": 244, "unit": "ng/g"},
      {"measurement": "concentration at 2 h", "setting": "[1]; 1 mg/kg, 2.00 h, read-out: Conc. in brain, individual animal", "result": 276, "unit": "ng/g"},
      {"measurement": "concentration at 4 h", "setting": "[1]; 1 mg/kg, 4.00 h, read-out: Conc. in brain, Mean", "result": 19, "unit": "ng/g"},
      {"measurement": "concentration at 4 h", "setting": "[1]; 1 mg/kg, 4.00 h, read-out: Conc. in brain, individual animal", "result": 18.2, "unit": "ng/g"}
    ]}
  ]
}
